Experimental data taken from paper PMC9229919, “4-Aminoquinoline-Based Adamantanes as Potential Anticholinesterase Agents in Symptomatic Treatment of Alzheimer’s Disease” (Pharmaceutics, 2022).
Read-outs that look alike come from different tables or passages of the source.

How the values were obtained:
[1] = Reverse-phase thin-layer chromatographic lipophilicity (RF, RM0); format: physicochemical; conditions: for RM0: intercept of RM = RM0 + bC; for b: slope of RM = RM0 + bC; for RF, Methanol/Water/Hydrochloric acid (conc.), mobile phase I / RF, Dioxane/Water/Hydrochloric acid (conc.), mobile phase II / RF, Methanol/Water/Hydrochloric acid (conc.), mobile phase II / RF, Acetone/Water/Hydrochloric acid (conc.), mobile phase III / RF, Dioxane/Water/Hydrochloric acid (conc.), mobile phase III / RF, Methanol/Water/Hydrochloric acid (conc.), mobile phase III / RF, Dioxane/Water/Hydrochloric acid (conc.), mobile phase IV / RF, Acetone/Water/Hydrochloric acid (conc.), mobile phase IV / RF, Methanol/Water/Hydrochloric acid (conc.), mobile phase IV / RF, Acetone/Water/Hydrochloric acid (conc.), mobile phase IX / RF, Methanol/Water/Hydrochloric acid (conc.), mobile phase IX / RF, Dioxane/Water/Hydrochloric acid (conc.), mobile phase V / RF, Acetone/Water/Hydrochloric acid (conc.), mobile phase V / RF, Methanol/Water/Hydrochloric acid (conc.), mobile phase V / RF, Dioxane/Water/Hydrochloric acid (conc.), mobile phase VI / RF, Acetone/Water/Hydrochloric acid (conc.), mobile phase VI / RF, Methanol/Water/Hydrochloric acid (conc.), mobile phase VI / RF, Acetone/Water/Hydrochloric acid (conc.), mobile phase VII / RF, Methanol/Water/Hydrochloric acid (conc.), mobile phase VII / RF, Acetone/Water/Hydrochloric acid (conc.), mobile phase VIII / RF, Methanol/Water/Hydrochloric acid (conc.), mobile phase VIII: RP-18 silica; for RF, Methanol/Water/Hydrochloric acid (conc.), mobile phase I: I = 90%MeOH/5%H2O/5%HCl; for RF, Dioxane/Water/Hydrochloric acid (conc.), mobile phase II: II = 80%Dioxane/15%H2O/5%HCl; for RF, Methanol/Water/Hydrochloric acid (conc.), mobile phase II: II = 85%MeOH/10%H2O/5%HCl; for RF, Acetone/Water/Hydrochloric acid (conc.), mobile phase III: III = 70%AC/25%H2O/5%HCl; for RF, Dioxane/Water/Hydrochloric acid (conc.), mobile phase III: III = 70%Dioxane/25%H2O/5%HCl; for RF, Methanol/Water/Hydrochloric acid (conc.), mobile phase III: III = 80%MeOH/15%H2O/5%HCl; for RF, Dioxane/Water/Hydrochloric acid (conc.), mobile phase IV: IV = 60%Dioxane/35%H2O/5%HCl; for RF, Acetone/Water/Hydrochloric acid (conc.), mobile phase IV: IV = 65%AC/30%H2O/5%HCl; for RF, Methanol/Water/Hydrochloric acid (conc.), mobile phase IV: IV = 75%MeOH/20%H2O/5%HCl; for RF, Acetone/Water/Hydrochloric acid (conc.), mobile phase IX: IX = 40%AC/55%H2O/5%HCl; for RF, Methanol/Water/Hydrochloric acid (conc.), mobile phase IX: IX = 50%MeOH/45%H2O/5%HCl; for RF, Dioxane/Water/Hydrochloric acid (conc.), mobile phase V: V = 50%Dioxane/45%H2O/5%HCl; for RF, Acetone/Water/Hydrochloric acid (conc.), mobile phase V: V = 60%AC/35%H2O/5%HCl; for RF, Methanol/Water/Hydrochloric acid (conc.), mobile phase V: V = 70%MeOH/25%H2O/5%HCl; for RF, Dioxane/Water/Hydrochloric acid (conc.), mobile phase VI: VI = 40%Dioxane/55%H2O/5%HCl; for RF, Acetone/Water/Hydrochloric acid (conc.), mobile phase VI: VI = 55%AC/40%H2O/5%HCl; for RF, Methanol/Water/Hydrochloric acid (conc.), mobile phase VI: VI = 65%MeOH/30%H2O/5%HCl; for RF, Acetone/Water/Hydrochloric acid (conc.), mobile phase VII: VII = 50%AC/45%H2O/5%HCl; for RF, Methanol/Water/Hydrochloric acid (conc.), mobile phase VII: VII = 60%MeOH/35%H2O/5%HCl; for RF, Acetone/Water/Hydrochloric acid (conc.), mobile phase VIII: VIII = 45%AC/50%H2O/5%HCl; for RF, Methanol/Water/Hydrochloric acid (conc.), mobile phase VIII: VIII = 55%MeOH/40%H2O/5%HCl
Summary of the method: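 Lipophilicity from RP-TLC retention at 22±2 °C over a 4.5 cm development distance. Eluents: organic modifier (methanol, acetone or dioxane), water and hydrochloric acid, methanol stepped by 10%. RM0 obtained from RF.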

[2] = molecular target: T1, purified human BChE (Homo sapiens, UniProt P06276); set-up: method as in PMID 31600664; conditions: previously tested derivative 2 (CQAd); ref [38]; cited from earlier work
T1 construct: possibly also a gift of Dr Florian Nachon (the sentence is ambiguous)
T1 sequence (P06276 29-602): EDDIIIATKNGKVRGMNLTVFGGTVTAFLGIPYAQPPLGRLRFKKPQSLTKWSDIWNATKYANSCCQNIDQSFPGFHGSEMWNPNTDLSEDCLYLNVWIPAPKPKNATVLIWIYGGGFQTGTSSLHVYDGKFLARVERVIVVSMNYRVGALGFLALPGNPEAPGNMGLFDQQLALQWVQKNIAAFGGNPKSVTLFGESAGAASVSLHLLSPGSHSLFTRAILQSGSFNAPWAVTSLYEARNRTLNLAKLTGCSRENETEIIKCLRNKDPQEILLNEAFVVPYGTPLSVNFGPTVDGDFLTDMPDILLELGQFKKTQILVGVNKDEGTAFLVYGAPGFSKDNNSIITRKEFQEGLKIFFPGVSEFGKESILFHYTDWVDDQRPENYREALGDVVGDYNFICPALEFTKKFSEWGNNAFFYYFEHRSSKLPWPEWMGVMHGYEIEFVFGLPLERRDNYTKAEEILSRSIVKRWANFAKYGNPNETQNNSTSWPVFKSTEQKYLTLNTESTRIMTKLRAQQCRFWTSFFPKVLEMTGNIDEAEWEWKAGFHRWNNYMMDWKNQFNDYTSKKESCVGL

[3] = molecular target: T1, purified human BChE; test: biochemical; format: biochemical
Summary of the method: (§1)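 Modified Ellman assay with acetylthiocholine and DTNB in 0.1 M sodium phosphate pH 7.4 (enzymes diluted with 0.1% BSA), ≤0.2% DMSO, 25 °C. At least three inhibitor concentrations per substrate level; Ki,app from Hunter–Downs equation, Ki from y-intercept and inhibition type from Ki,app vs [S].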

[4] = molecular target: T2, recombinant human AChE (Homo sapiens, UniProt P22303); test: biochemical; format: biochemical; conditions: for IS: IS = Ki(BChE)/Ki(AChE), IS > 1 selective to AChE
T2 construct: gift of Dr Florian Nachon (Armed Forces Biomedical Research Institute, Brétigny-sur-Orge, France)
T2 sequence (P22303 32-614): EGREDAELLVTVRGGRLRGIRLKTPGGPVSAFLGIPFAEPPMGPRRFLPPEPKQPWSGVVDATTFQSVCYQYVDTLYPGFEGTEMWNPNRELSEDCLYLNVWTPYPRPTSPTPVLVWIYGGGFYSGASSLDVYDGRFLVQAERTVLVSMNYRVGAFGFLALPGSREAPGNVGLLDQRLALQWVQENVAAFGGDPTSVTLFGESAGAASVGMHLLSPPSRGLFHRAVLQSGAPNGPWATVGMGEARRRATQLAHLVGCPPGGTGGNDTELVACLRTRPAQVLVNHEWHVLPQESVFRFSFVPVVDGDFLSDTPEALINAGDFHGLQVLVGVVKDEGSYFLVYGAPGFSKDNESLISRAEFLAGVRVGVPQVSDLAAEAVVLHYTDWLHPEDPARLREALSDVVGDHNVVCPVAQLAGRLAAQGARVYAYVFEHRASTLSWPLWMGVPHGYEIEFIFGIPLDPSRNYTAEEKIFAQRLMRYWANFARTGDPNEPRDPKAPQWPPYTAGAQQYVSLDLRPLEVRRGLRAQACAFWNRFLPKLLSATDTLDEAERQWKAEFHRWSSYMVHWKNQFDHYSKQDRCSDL
Summary of the method: as §1

[5] = Ferric reducing antioxidant power (FRAP) assay; conditions: for FRAP: mean ± standard error of three experiments;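 as to FRAP: expressed as µM Fe2+ equivalents from an FeSO4·7H2O standard curve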
Summary of the method: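 Ferric-TPTZ reduction measured by absorbance at 593 nm after 60 min at 37 °C in pH 3.6 acetate-buffered TPTZ/FeCl3 reagent, with test compounds at 10 and 100 µM. FRAP values calculated from an Fe2SO4·7H2O standard curve. Data from three independent experiments.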

[6] = physchem; conditions: octadecyl-modified silica RP-18W F254s TLC plates, pH 0.5
From the text: The mobile phase contained an organic modifier (methanol, acetone or dioxane), water, and hydrochloric acid. The content of hydrochloric acid was kept constant at 5% v/v, while the portions of organic modifier and water varied. […] Mobile phase MeOH/H2O/HCl, 70:25:5 (vol%) was used to determine the partition coefficients, logDexp, of the tested compounds at pH 0.5 (Supplementary Materials File S3 Table S7).
Chromatographic determination of lipophilicity
Lipophilicity of synthesized compounds was evaluated under reversed-phase thin-layer
chromatographic condition using the vertical developing chamber (CAMAG, Muttenz, Switzerland)
The mobile phase contained organic modifier (methanol, acetone or dioxane), water and hydrochloric acid. The content of hydrochloric acid was kept constant at 5 %v/v
while the portion of the organic modifier and water were changed. Methanol was varied in the range
with an increment of 10%. The chamber was saturated with a mobile phase being used 15 minutes
before chromatogram development. The solvent developing distance was 4.5 cm. Detection of
All experiments were performed at ambient temperature (22±2 °C). Retention parameters were calculated as previously described [7].
The logD values of the investigated substances were determined by the interpolation procedure. […]
LogD values of the investigated substances were determined from the equation of the calibration […]

[7] = Acetone/Water/Hydrochloric acid (conc.)
[8] = Dioxane/Water/Hydrochloric acid (conc.)
[9] = Methanol/Water/Hydrochloric acid (conc.)
[10] = logarithm of Ki in µM, BChE, dependent variable of the QSAR model, read-out: Y Measured 2 log(ki)Bche, log (Ki/µM BChE) (converted)

Compound	RM0 [1, 7]	b [1, 7]	RM0 [1, 8]	b [1, 8]	RM0 [1, 9]	b [1, 9]	RF, Methanol/Water/Hydrochloric acid (conc.), mobile phase I [1]	RF, Dioxane/Water/Hydrochloric acid (conc.), mobile phase II [1]	RF, Methanol/Water/Hydrochloric acid (conc.), mobile phase II [1]	RF, Acetone/Water/Hydrochloric acid (conc.), mobile phase III [1]	RF, Dioxane/Water/Hydrochloric acid (conc.), mobile phase III [1]	RF, Methanol/Water/Hydrochloric acid (conc.), mobile phase III [1]	RF, Dioxane/Water/Hydrochloric acid (conc.), mobile phase IV [1]	RF, Acetone/Water/Hydrochloric acid (conc.), mobile phase IV [1]	RF, Methanol/Water/Hydrochloric acid (conc.), mobile phase IV [1]	RF, Acetone/Water/Hydrochloric acid (conc.), mobile phase IX [1]	RF, Methanol/Water/Hydrochloric acid (conc.), mobile phase IX [1]	RF, Dioxane/Water/Hydrochloric acid (conc.), mobile phase V [1]	RF, Acetone/Water/Hydrochloric acid (conc.), mobile phase V [1]	RF, Methanol/Water/Hydrochloric acid (conc.), mobile phase V [1]	other results
Clc1ccc2c(NCCCNCC34CC5CC(CC(C5)C3)C4)ccnc2c1 [Compound 2]	1.795	2.949	0.8129	1.796	2.34	3.123	0.73	0.78	0.67	0.61	0.73	0.52	0.73	0.58	0.53	0.15	0.11	0.55	0.5	0.47	RF, Dioxane/Water/Hydrochloric acid (conc.), mobile phase VI [1]: 0.4; RF, Acetone/Water/Hydrochloric acid (conc.), mobile phase VI [1]: 0.41; RF, Methanol/Water/Hydrochloric acid (conc.), mobile phase VI [1]: 0.43; RF, Acetone/Water/Hydrochloric acid (conc.), mobile phase VII [1]: 0.35; RF, Methanol/Water/Hydrochloric acid (conc.), mobile phase VII [1]: 0.25; RF, Acetone/Water/Hydrochloric acid (conc.), mobile phase VIII [1]: 0.3; RF, Methanol/Water/Hydrochloric acid (conc.), mobile phase VIII [1]: 0.19; Ki [2]: 3.2 ± 0.4 µM; less potent inhibitors of BChE than compounds 3 or 4 [3]: about 3.2 times; Ki [3, 10]: 3.2 µM; IS [4]: 4.2; Y Measured 1 log(ki)Ache ([4]; log (Ki/µM AChE)): -1.14E-01; FRAP ([5]; 10 µM compound): 19 ± 2 µM; FRAP ([5]; 100 µM compound): 64 ± 5 µM
Clc1ccc2c(Nc3cccc4c(NCCC56CC7CC(CC(C7)C5)C6)cccc34)ccnc2c1 [Compound 19]	1.657	2.289	1.551	2.623	3.685	4.54	0.67	0.7	0.61	0.49	0.66	0.44	0.63	0.41	0.35	0.15	0	0.53	0.3	0.3	RF, Dioxane/Water/Hydrochloric acid (conc.), mobile phase VI [1]: 0.13; RF, Acetone/Water/Hydrochloric acid (conc.), mobile phase VI [1]: 0.28; RF, Methanol/Water/Hydrochloric acid (conc.), mobile phase VI [1]: 0.21; RF, Acetone/Water/Hydrochloric acid (conc.), mobile phase VII [1]: 0.25; RF, Methanol/Water/Hydrochloric acid (conc.), mobile phase VII [1]: 0.1; RF, Acetone/Water/Hydrochloric acid (conc.), mobile phase VIII [1]: 0.2; RF, Methanol/Water/Hydrochloric acid (conc.), mobile phase VIII [1]: 0.04; decrease in BChE inhibition vs compound 5 [3]: up to 275 times; Ki [3, 10]: 21.9 µM; Ki ([3]; ± standard error, 25 °C, ATCh substrate, read-out: Ki BChE): 22 ± 2 µM; IS [4]: 5.8; Ki ([4]; log (Ki/µM AChE), read-out: Y Measured 1 log(ki)Ache (converted)): 3.8 µM; Ki ([4]; ± standard error, 25 °C, ATCh substrate, read-out: Ki AChE): 3.8 ± 0.3 µM; chromatographic logD [6]: -4.12; FRAP ([5]; 10 µM compound): 336 ± 12 µM; FRAP ([5]; 100 µM compound): 2450 ± 210 µM; reducing power (in words) ([5]; 10 and 100 µM): very good reducing power comparable to that of BHT and Trolox
